The text below walks through data of ChEMBL document CHEMBL1201862, “PubChem BioAssay data set” (2004).

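Briefly, cells in 96-well plates were exposed to five compound concentrations for 48 h, and endpoints were estimated by linear interpolation. Abbreviation: GI50, concentration required for 50% inhibition of growth.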 Active and inactive are the calls of the source. Cut-off read from the data, not from the text of the source: active = GI50 up to about 1.1 µM and inactive = higher.

Common to all, as to assay: inhibition of tumour cell growth, NCI panel, 48 h
In assay [1] the test system is SNB-75.
Assay [2] has as its system UO-31.
Assay [3] has as its system HCT-15.
In assay [4] the test system is HCT-116.
In assay [5] the test system is CCRF-CEM.
For assay [6], the system named is RPMI-8226.
Assay [7] has as its system A498.
In assay [8] the test system is SR.
Assay [9] relates to ACHN.
Assay [10] deals with HOP-62.
The subject of assay [11] is TK-10.
Assay [12] concerns EKVX.
Assay [13] concerns SK-OV-3.
Assay [14] relates to SF-295.
In assay [15] the test system is NCI-H226.
The subject of assay [16] is KM12.
Assay [17] deals with NCI-H460.
Assay [18] concerns NCI-H23.

`C/C(=N\NC(N)=O)C(CN1CCCCC1)C(c1ccccc1)c1c(O)c2ccccc2oc1=O` (stereo not drawn): the GI50 was > 100 µM (inactive) in [1]; > 100 µM (inactive) in assay [2]; > 100 µM in [3]; > 100 µM (inactive) in assay [4]; > 100 µM (inactive) in [5]; > 100 µM (inactive) in [6]. The GI50 in assay [7], in assay [8], in assay [9], in assay [10], in assay [11] and in assay [12] was > 100 µM (inactive) in each case. Moreover, the GI50 in [13], in assay [14], in assay [15], in assay [16] and in [17] was > 100 µM (inactive) in each case.

As for `CC1NOC(=O)C1/N=N/c1ccc(Cl)cc1Cl` (stereo not drawn), the GI50 in assay [1] is 20.9 µM (inactive); in assay [2] it was 24.4 µM (inactive); in assay [3] it was 18.5 µM; in assay [4] it was 21.9 µM (inactive); in assay [5] it was 30.9 µM (inactive); in assay [7] it was 35.3 µM (inactive). The GI50 in assay [8] was 18.7 µM (inactive); in assay [9], 21.4 µM (inactive); in [18] it was 20.8 µM (inactive); in assay [10], 43 µM (inactive); in [11], 23.8 µM (inactive); in assay [12], 24.6 µM (inactive). Also, the GI50 in assay [13] is 29.3 µM (inactive); in assay [14] it was 28.8 µM (inactive); in assay [15], 25.4 µM (inactive); in assay [16], 15.1 µM (inactive); in assay [17] it was 24.7 µM (inactive).

On to `O=C(CC(=O)Nc1cccc(Cl)c1)NNCC(=O)Nc1nnc(-c2ccccc2)s1`, for which the GI50 in assay [1] is 9.38 µM (inactive); in [2], 45 µM (inactive); in [3] it was 39.3 µM; in assay [4] it was 24.8 µM (inactive); in assay [6] it was 14.2 µM (inactive); in [7], 20.8 µM (inactive). In addition, the GI50 is 41.2 µM (inactive) in [8]; 39.8 µM (inactive) in assay [9]; 94.6 µM (inactive) in assay [18]; 21.9 µM (inactive) in assay [10]; 45.2 µM (inactive) in assay [11]; 57.3 µM (inactive) in [12]. Besides, the GI50 was 26.4 µM (inactive) in assay [13]; > 100 µM (inactive) in [14]; 22.9 µM (inactive) in assay [15]; > 100 µM (inactive) in [16]; 11.1 µM (inactive) in assay [17].

For `[N-]=[N+]=CC(=O)C1(C(=O)C=[N+]=[N-])CC1`, the GI50 in [1] was > 100 µM (inactive); in [2], > 100 µM (inactive); in assay [3] it was > 100 µM; in [4], > 100 µM (inactive); in assay [5], > 100 µM (inactive); in assay [7], > 100 µM (inactive). Moreover, the GI50 in [8], in assay [9], in assay [18], in assay [10], in [11] and in [12] was > 100 µM (inactive) in each case. The GI50 in assay [13], in assay [14], in assay [15], in assay [16] and in assay [17] was > 100 µM (inactive) each time.
